Measured values from publication PMC11866022, “Long-Chain Cyclic Arylguanidines as Multifunctional Serotonin Receptor Ligands with Antiproliferative Activity” (ACS Omega, 2025).
Several values for one entry are separate records, joined by “and”; a condition that tells them apart may be missing. Identical values can stand only once. Like-named read-outs stand apart in the source and are kept apart here. Values belong to the molecule of their own block, whether it stands above or below them.

Assays:
[1] = calibration standards, assigned values, no reference given; cited from earlier work
[2] = system: U-251 glioblastoma cells; assay: Antiproliferative activity (MTS), U-251; type: cell-based, human; conditions: MTS assay, 72 h
Procedure: (§1) These cell lines were characterized by different mutation profiles, the main one being the variable status of the p53 protein. In detail, U87MG cells have a wild-type p53 protein, while astrocytoma and the rest of GBM cells harbor mutated p53 protein. Additional assays were performed on MCF7 breast cancer and AsPC-1 pancreatic cancer cells. The wide range of tested lines was aimed at screening the anticancer potential of the tested compounds. The first represents one of the most common and the second one of the most aggressive cancers in the world. Comparing the activity of compounds on GBM cells to other types of cancer may reveal their selectivity and usefulness in targeted therapies. The cytotoxicity of the compounds on normal human astrocytes (NHA) and Feline catus astrocyte (PG-4) was determined. Tests on normal lines serve to verify the potential toxicity of the tested compounds on healthy cells. Due to the targeting of CNS tumors, astrocytes were selected as normal lines.
(§2) The detailed procedure is presented in previous publications.[53] […] Cells were cultured in appropriate media, supplemented with FBS, antibiotics, and other supplements, and incubated at 37 °C with 5% CO2. […] Cell viability was assessed using the MTS assay, and the inhibitory concentration (IC50) was calculated using GraphPad Prism 8.0. Each compound was tested in triplicate across multiple experiments.

[3] = system: LN-229 glioblastoma cells; assay: Antiproliferative activity (MTS), LN-229; type: cell-based, human; conditions: MTS assay, 72 h
Procedure: as §1, §2

[4] = system: normal human astrocytes (NHA); assay: Cytotoxicity (MTS), normal human astrocytes; type: cell-based; conditions: 72 h, normal human astrocytes, MTS assay
Procedure: as §1, with “The chosen group of ligands was further examined for their ability to inhibit proliferation across multiple cancer cell lines related to the CNS system (1321N1, U87MG, LN-229, and U-251). These” for “These”
(§3) The detailed procedure is presented in previous publications.[53] Briefly, the study utilized various human cancer and normal cell lines, including LN-229 (glioblastoma), MCF7 (breast carcinoma), HepG2 (hepatoma), U-251 (glioblastoma), U87MG (glioblastoma), AsPC-1 (pancreatic adenocarcinoma), and NHA (normal human astrocytes). Cells were cultured in appropriate media, supplemented with FBS, antibiotics, and other supplements, and incubated at 37 °C with 5% CO2. Compounds were dissolved in DMSO, prepared at various concentrations (1–25 μM), and applied to the cells for 72 h. Cell viability was assessed using the MTS assay, and the inhibitory concentration (IC50) was calculated using GraphPad Prism 8.0. Each compound was tested in triplicate across multiple experiments.

[5] = system: 1321N1 astrocytoma cells; assay: Antiproliferative activity (MTS), 1321N1; type: cell-based, human; conditions: MTS assay
Procedure: as §1, §2
Supplementary materials - Biological research […]

[6] = system: U87MG glioblastoma cells; assay: Antiproliferative activity (MTS), U87MG; type: cell-based, human; conditions: MTS assay
Procedure: as §1, §2
Supplementary materials - Biological research
B) U87MG glioblastoma multiforme line.
and U87MG glioblastoma multiforme line for C) PP 3; D) PP 6; E) PP 8; F) PP 10; G) PP 11; H) PP

[7] = biological target: T1, 5-HT6 (Homo sapiens, UniProt P50406); assay: Radioligand binding assay, 5-HT6 ([3H]-LSD); conditions: HEK293 cell line with human 5-HT6R; 2 nM [3H]-LSD
T1 construct: expressed in transfected cells; host or cells: HEK293
Procedure: Ligand affinity for 5-HT6 receptors was subsequently tested with a radioligand binding assay, using the HEK293 cell line with human 5-HT6R, aiming to select compounds with the strongest affinity. Three compounds belonging to 2-naphthalenesulfonamide derivatives of 3,4-dihydroquinazolin-2-amines were obtained (Table 1).
The detailed procedure is presented in previous publications.[53] Assays were performed by incubating for 1 h at 37 °C (room temperature for 5-HT1A) in 200 μL volumes on 96-well plates. The reaction was terminated by rapid filtration using Unifilter plates, and radioactivity on the filters was measured with a PerkinElmer Microbeta plate reader. Radioligands used were:
Eight concentrations (10^–4 to 10^–11 M) were tested in triplicate for each compound. Inhibition constants (Ki) were calculated using the Cheng–Prusoff equation.[54] The results are expressed as the means of at least two independent experiments.

[8] = Affinity to phospholipids, CHI IAM (Valko protocol); type: physicochemical; conditions: IAM column
Procedure: (§4) Lipophilicity and affinity for phospholipids for each investigated molecule were assessed. Additionally, selected compounds with the highest biological activities have been characterized by their affinity plasma proteins. All experiments were performed using protocols developed by Valko.[35] These methods facilitated the calculation of chromatographic hydrophobicity indices (CHI) and plasma protein binding percentages (%PPB) in a biochromatographic experiment, with results compared to the reference. A detailed description of the experiments is provided in the Supporting Information (SI), along with the raw data. […] Although high lipophilicity may limit the medical use of the analyzed compounds since they may tend to accumulate excessively in the human body, it is remarkable that several clinically used drugs also have high lipophilicity. […] (Table 5).
(§5) The detailed procedure is presented in previous publications.[53] High-performance liquid chromatography (HPLC) analyses were conducted using the Prominence-1 LC-2030C 3D system (Shimadzu) with a DAD detector, employing three different chromatographic columns with specific stationary phases and mobile phases. The analysis was performed at 30 °C with a flow rate of 1.5 mL/min for IAM and C18 columns, and 0.9 mL/min for the Chiralpak column. Calibration standards for the columns were sourced from various suppliers and dissolved in dimethyl sulfoxide. Detection occurred in the UV range (190–300 nm) with a 5 μL injection volume. Each compound was analyzed in triplicate. Retention times for the tested compounds and calibration standards are provided in the Supporting Information (Tables S1 and S2).

[9] = system: AsPC-1 pancreatic cancer cells; assay: Antiproliferative activity (MTS), AsPC-1; type: cell-based, human; conditions: MTS assay, 72 h
Procedure: as §1, with “The chosen group of ligands was further examined for their ability to inhibit proliferation across multiple cancer cell lines related to the CNS system (1321N1, U87MG, LN-229, and U-251). These” for “These”
as §3

[10] = biological target: T2, human serum albumin (HSA) (Homo sapiens, UniProt P02768); assay: HSA binding by biochromatography (HSA column); type: in vitro ADME
T2 construct: purchased
Procedure: as §4, §5

[11] = Lipophilicity, chromatographic hydrophobicity index on C18 (Valko protocol); type: physicochemical
Procedure: as §4, §5

[12] = system: MCF7 breast cancer cells; assay: Antiproliferative activity (MTS), MCF7; type: cell-based, human; conditions: MTS assay, 72 h
Procedure: as §1, §2

[13] = Metabolic stability in mouse liver microsomes; type: in vitro ADME; conditions: MLMs, 120 min
From the text: Moving on to the next parameter, which is metabolism, we determined metabolic stability, using mouse liver microsomes (MLMs). […]
Main metabolic pathways are marked in red.

T1 sequence (P50406 whole entry): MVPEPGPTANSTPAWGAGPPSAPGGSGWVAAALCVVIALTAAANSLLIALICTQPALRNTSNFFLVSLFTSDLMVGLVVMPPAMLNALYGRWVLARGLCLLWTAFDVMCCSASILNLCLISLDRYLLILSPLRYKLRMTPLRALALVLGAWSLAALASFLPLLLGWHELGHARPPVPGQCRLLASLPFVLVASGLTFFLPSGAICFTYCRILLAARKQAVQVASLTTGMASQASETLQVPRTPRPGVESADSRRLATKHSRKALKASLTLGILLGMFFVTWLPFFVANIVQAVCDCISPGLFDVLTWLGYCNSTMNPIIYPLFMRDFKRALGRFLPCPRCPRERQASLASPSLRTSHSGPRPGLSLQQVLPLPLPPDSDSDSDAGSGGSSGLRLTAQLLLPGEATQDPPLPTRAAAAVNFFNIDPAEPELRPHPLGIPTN
T2 sequence (P02768 25-609): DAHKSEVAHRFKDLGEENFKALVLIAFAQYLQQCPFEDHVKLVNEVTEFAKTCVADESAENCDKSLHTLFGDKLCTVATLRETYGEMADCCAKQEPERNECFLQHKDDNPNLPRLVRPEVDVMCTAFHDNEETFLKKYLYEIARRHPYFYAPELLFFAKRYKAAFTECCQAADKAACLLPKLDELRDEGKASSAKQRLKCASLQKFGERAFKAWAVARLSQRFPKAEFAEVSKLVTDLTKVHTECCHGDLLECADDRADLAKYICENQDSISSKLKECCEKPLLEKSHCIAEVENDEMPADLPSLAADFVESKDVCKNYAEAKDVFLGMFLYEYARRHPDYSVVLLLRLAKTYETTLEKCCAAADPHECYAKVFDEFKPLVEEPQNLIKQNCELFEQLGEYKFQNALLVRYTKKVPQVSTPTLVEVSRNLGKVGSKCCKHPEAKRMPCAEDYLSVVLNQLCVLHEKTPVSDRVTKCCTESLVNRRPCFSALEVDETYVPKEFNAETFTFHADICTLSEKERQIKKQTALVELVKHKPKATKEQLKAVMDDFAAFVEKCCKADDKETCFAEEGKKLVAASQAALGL

Molecule: CC(=O)Nc1ccccc1 [Acetanilidine]
- CHI IAM of the calibration set [1]: 11.5

- IC50 ([2]; Homo sapiens, U-251): 27 µM
- IC50 ([3]; Homo sapiens, LN-229): 9.8 µM
Molecule: CN(C)C/C=C/C(=O)Nc1cc2c(Nc3ccc(F)c(Cl)c3)ncnc2cc1O[C@H]1CCOC1 [Afatinib, reference compound]
- IC50 ([4]; Homo sapiens, Astrocyte): 7.5 µM

- IC50 ([5]; Homo sapiens, 1321-N1): 1.1 µM
Molecule: COc1cccc2c1C(=O)c1c(O)c3c(c(O)c1C2=O)C[C@@](O)(C(=O)CO)C[C@@H]3O[C@H]1C[C@H](N)[C@H](O)[C@H](C)O1 [Doxorubicin, reference compound]

Molecule: CCCCCCC(=O)c1ccccc1 [Heptanophenone]
- CHI IAM of the calibration set [1]: 45.7

Molecule: CCCCCC(=O)c1ccccc1 [Hexanophenone]
- CHI IAM of the calibration set [1]: 41.8

Molecule: CCCCCCCC(=O)c1ccccc1 [Octanophenone]
- CHI IAM of the calibration set [1]: 49.4

- IC50 ([6]; Homo sapiens, U-87 MG): 12 ± 0.9 µM
- Ki [7]: 0.201 ± 0.05 µM
- IC50 ([5]; Homo sapiens, 1321-N1): 13.3 ± 0.1 µM
Molecule: O=S(=O)(NCCCCCCNC1=NCc2ccccc2N1)c1ccc2ccccc2c1 [PP 3, N-{6-[(1,4-Dihydroquinazolin-2-yl)amino]hexyl}naphthalene-2-sulfonamide]

- IC50 ([6]; Homo sapiens, U-87 MG): > 25 µM
- CHI IAM [8]: 50.2
- Ki [7]: 4.33 ± 1.08 µM
- IC50 ([9]; Homo sapiens, ASPC1): > 25 µM
- IC50 ([2]; Homo sapiens, U-251): > 25 µM
- IC50 ([3]; Homo sapiens, LN-229): > 25 µM
- IC50 ([5]; Homo sapiens, 1321-N1): > 25 µM
- %HSA ([10]; HSA column): 94.8%
- logKHSA ([10]; HSA column): 1.18 and 1.2
- CHI C18 pH 2.6 [11]: 64.9
- CHI C18 pH 7.4 [11]: 79.9
- CHI C18 pH 10.5 [11]: 101.9
- IC50 ([12]; Homo sapiens, MCF7): > 25 µM
Molecule: O=S(=O)(NCCNC1=Nc2ccccc2CN1)c1cccc2ccccc12 [PP 4, N-{2-[(3,4-Dihydroquinazolin-2-yl)amino]ethyl}naphthalene-1-sulfonamide]

- IC50 ([6]; Homo sapiens, U-87 MG): 24.5 ± 1.4 µM
- Ki [7]: 0.098 ± 0.025 µM
- IC50 ([9]; Homo sapiens, ASPC1): > 25 µM
- IC50 ([2]; Homo sapiens, U-251): > 25 µM
- IC50 ([3]; Homo sapiens, LN-229): > 25 µM
- IC50 ([5]; Homo sapiens, 1321-N1): 18.4 ± 2.9 µM
- IC50 ([12]; Homo sapiens, MCF7): > 25 µM
Molecule: O=S(=O)(NCCCCCCNC1=Nc2ccccc2CN1)c1cccc2ccccc12 [PP 8, N-{6-[(3,4-Dihydroquinazolin-2-yl)amino]hexyl}naphthalene-1-sulfonamide]

- IC50 ([6]; Homo sapiens, U-87 MG): 9.5 ± 0.7 µM
- CHI IAM [8]: 59.4
- Ki [7]: 0.208 ± 0.052 µM
- IC50 ([5]; Homo sapiens, 1321-N1): 5.7 ± 0.1 µM
- %HSA ([10]; HSA column): 99.7%
- logKHSA ([10]; HSA column): 1.9
- CHI C18 pH 2.6 [11]: 97.1
- CHI C18 pH 7.4 [11]: 111.2
- CHI C18 pH 10.5 [11]: 121.8
- metabolic stability, % of remaining [13]: 76.87%
Molecule: CC1NC(NCCCCCCNS(=O)(=O)c2cccc3ccccc23)=Nc2c(Cl)cc(Cl)cc21 (stereo not drawn) [PP 12, N-{6-[(6,8-Dichloro-4-methyl-3,4-dihydroquinazolin-2-yl)amino]hexyl}naphthalene-1-sulfonamide]

- IC50 ([6]; Homo sapiens, U-87 MG): > 25 µM
- CHI IAM [8]: 37.2
- Ki [7]: 4.18 ± 1.04 µM
- IC50 ([9]; Homo sapiens, ASPC1): > 25 µM
- IC50 ([2]; Homo sapiens, U-251): > 25 µM
- IC50 ([3]; Homo sapiens, LN-229): > 25 µM
- IC50 ([5]; Homo sapiens, 1321-N1): > 25 µM
- %HSA ([10]; HSA column): 95.0%
- logKHSA ([10]; HSA column): 1.2
- CHI C18 pH 2.6 [11]: 78.3
- CHI C18 pH 7.4 [11]: 86.3
- CHI C18 pH 10.5 [11]: 87.1
- IC50 ([12]; Homo sapiens, MCF7): > 25 µM
Molecule: O=S(=O)(NCCNc1ncc2ccccc2n1)c1cccc2ccccc12 [PP 14, N-{2-[(Quinazolin-2-yl)amino]ethyl}naphthalene-1-sulfonamide]

- Ki [7]: 3.1 ± 0.776 µM
- IC50 ([9]; Homo sapiens, ASPC1): > 25 µM
- IC50 ([2]; Homo sapiens, U-251): > 25 µM
- IC50 ([3]; Homo sapiens, LN-229): > 25 µM
- IC50 ([12]; Homo sapiens, MCF7): > 25 µM
Molecule: O=S(=O)(NCCCCCCNc1ncccn1)c1cccc2ccccc12 [PP 16, N-{6-[(Pyrimidin-2-yl)amino]hexyl}naphthalene-1-sulfonamide]

- Ki [7]: 1.87 ± 0.46 µM
- IC50 ([9]; Homo sapiens, ASPC1): > 25 µM
- IC50 ([2]; Homo sapiens, U-251): > 25 µM
- IC50 ([3]; Homo sapiens, LN-229): > 25 µM
- IC50 ([12]; Homo sapiens, MCF7): > 25 µM
Molecule: c1ccc2c(c1)CNC(NCCc1cccc3ccccc13)=N2 [PP 19, N-[2-(Naphthalen-1-yl)ethyl]-3,4-dihydroquinazolin-2-amine]

- 5-HT6 Ki [7]: did not show any affinity
- Ki [7]: 5.05 ± 1.26 µM
- IC50 ([9]; Homo sapiens, ASPC1): > 25 µM
- IC50 ([2]; Homo sapiens, U-251): > 25 µM
- IC50 ([3]; Homo sapiens, LN-229): > 25 µM
- IC50 ([12]; Homo sapiens, MCF7): > 25 µM
Molecule: c1ccc2c(N3CCN(c4nc5ccccc5[nH]4)CC3)cccc2c1 [PP 20, 2-[4-(Naphthalen-1-yl)piperazin-1-yl]-1H-1,3-benzodiazole]

Molecule: CC(=O)Nc1ccc(O)cc1 [Paracetamol]
- CHI IAM of the calibration set [1]: 2.9

- Ki [7]: 0.605 ± 0.151 µM
- IC50 [9]: 7.4 ± 0.5 µM
- IC50 [2]: 13 ± 0.4 µM
- IC50 [3]: 9.9 ± 0.7 µM
- IC50 [12]: > 25 µM
Molecule: N-{2-[4-(1,2-Benzothiazol-3-yl)piperazin-1-yl]ethyl}-1,2-dihydroquinazolin-2-amine [PP 21]
- IC50 [4]: 4.7 ± 0.2 µM

- IC50 [6]: 13.8 ± 0.9 µM
- CHI IAM [8]: 56.4
- Ki [7]: 0.278 ± 0.07 µM
- IC50 [9]: 12.5 ± 0.4 µM
- IC50 [2]: 4.3 ± 0.6 µM
- IC50 [3]: > 25 µM
- IC50 [5]: 10.4 ± 0.6 µM
- %HSA [10]: 98.4%
- CHI C18 pH 2.6 [11]: 56.4
- CHI C18 pH 7.4 [11]: 115.8
- CHI C18 pH 10.5 [11]: 168.7
- IC50 [12]: 14.5 ± 0.2 µM
Molecule: N-{2-[4-(1-Benzothiophen-4-yl)piperazin-1-yl]ethyl}-1,2-dihydroquinazolin-2-amine [PP 22]
- IC50 [4]: 8.1 ± 0.2 µM
